From ChEMBL document CHEMBL1212750, “Continuous clindamycin infusion, an innovative approach to treating bone and joint infections” (Antimicrob Agents Chemother, 2010) come the findings set out here.

Series [1] has as its system Staphylococcus aureus. Kind of series: Antimicrobial activity against Staphylococcus aureus SJ11617. The class given is functional.
A short description of series [2]: Cmax po dosed in human co-treated with rifampin. The class given is ADME, organism-based. Also noted: route oral. As to conditions: in vivo.
Series [3] concerns Staphylococcus aureus. As to the kind of experiment: Antimicrobial activity against Staphylococcus aureus infection in human assessed as curing from bone/joint infection at 600 mg, iv followed by 30 to 40 mg/kg of body weight, iv followed by oral regimen upto 30 months. The class given is functional, organism-based.
For series [4], the system named is Serum. Kind of series: Drug level in bone/joint infection patient serum assessed as median concentration at 2400 mg, iv after 3 to 14 days. The class given is ADME, organism-based. As to conditions: human, in vivo.
Series [5] concerns Serum. As to the kind of experiment: Drug level in bone/joint infection patient serum assessed as median concentration at 2400 mg, iv after 8 to 28 days. The class given is ADME, organism-based. As to conditions: human, in vivo.

Calls of active or inactive are those of the source.

For `CO[C@H]1/C=C/O[C@@]2(C)Oc3c(C)c(O)c4c(O)c(c(/C=N/N5CCN(C)CC5)c(O)c4c3C2=O)NC(=O)/C(C)=C\C=C\[C@H](C)[C@H](O)[C@@H](C)[C@@H](O)[C@@H](C)[C@H](OC(C)=O)[C@@H]1C` [RIFAMPIN], in series [1], the MIC (as a rule, the smallest concentration in the dilution series that meets the test's criterion for growth inhibition) was over 128 µg/mL.
On the same count and under the same terms, next, `C[C@@H]1O[C@@H]1P(=O)(O)O` [FOSFOMYCIN]: over 512 µg/mL; `CC(=O)O[C@H]1C[C@@]2(C)[C@@H](C[C@@H](O)[C@H]3[C@@]4(C)CC[C@@H](O)[C@@H](C)[C@@H]4CC[C@@]32C)/C1=C(\CCC=C(C)C)C(=O)O` [FUSIDIC ACID]: over 256 µg/mL.
For the molecule `CCC[C@@H]1C[C@@H](C(=O)N[C@@H]([C@H]2O[C@H](SC)[C@H](O)[C@@H](O)[C@H]2O)[C@H](C)Cl)N(C)C1` [CLINDAMYCIN], the Cmax (as a rule, the maximum level reached in the sampled fluid or tissue) in series [2] is under 2500 ng/mL. In series [3], the outcome was Active. The Drug uptake stood at 5 mg/L in series [4] and 6.2 mg/L in series [5].
